Assay results from patent publication US5290926A, “Isolated DNA Encoding plant histidinol dehydrogenase” (Ciba-Geigy Corporation, priority 1990, dated 1994).
Where two headings read alike, the source gives them in different places.

T1: histidinol dehydrogenase from cabbage (Brassica oleracea var. capitata, UniProt P24226)
T1 construct: Spring cabbage heads are homogenized using a kitchen mixer; from tissue; host or cells: mature spring cabbage heads
T1 sequence (P24226 32-469): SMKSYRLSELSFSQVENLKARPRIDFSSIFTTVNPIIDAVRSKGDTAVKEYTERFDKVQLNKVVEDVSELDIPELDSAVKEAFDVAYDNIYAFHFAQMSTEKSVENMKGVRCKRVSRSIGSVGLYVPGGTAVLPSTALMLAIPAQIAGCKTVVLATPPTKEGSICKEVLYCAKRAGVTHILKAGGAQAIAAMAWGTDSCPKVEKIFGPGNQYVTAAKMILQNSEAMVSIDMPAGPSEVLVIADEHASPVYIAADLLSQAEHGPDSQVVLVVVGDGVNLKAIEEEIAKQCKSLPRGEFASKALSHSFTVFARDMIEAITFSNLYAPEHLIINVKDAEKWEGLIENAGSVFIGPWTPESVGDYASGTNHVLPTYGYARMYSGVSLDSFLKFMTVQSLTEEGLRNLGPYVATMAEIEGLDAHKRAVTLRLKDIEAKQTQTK


Assays:
[1] = target: T1, histidinol dehydrogenase from cabbage; assay: Histidinol dehydrogenase enzyme assay (spectrophotometric, NAD+ reduction at 340 nm); format: biochemical; details: for Relative Activity: metal ion 0.5 mM, activity after 3 min reaction time, None = 100
Method: (§1) The enzyme activity is assayed spectrophotometrically by measuring the increase in absorbence at 340 nm due to the reduction of NAD+in a Hitachi U-3120 spectrophotomer. The reaction mixture contained 150 mM Gly/NaOH buffer, pH 9.2, 0.5 mM, MnCl , 2 mM NAD+, 5 mM histidinol, and 2-5 mU of enzyme sample in total volume of 0.5 ml. The reaction is started with the addition of histidinol, and incubated at 30° C. A reference sample containing water instead of histidinol is always run. One unit of enzyme catalyzes the formation of 2 μmol of NADH per min under the assay conditions.
as §1, with “absorbance” for “absorbence”, “spectrophotometer.” for “spectrophotomer.”, “pH9.2,” for “pH 9.2,”, “MnCl2,” for “MnCl ,”, “NAD +,” for “NAD+,”, “catalyzing” for “catalyzes”

[2] = system: histidinol dehydrogenase from S. typhimurium; details: cited from earlier work
[3] = system: histidinol dehydrogenase from wheat germ; details: cited from earlier work
[4] = substrate: N[C@H](CO)Cc1c[nH]cn1; assay: purified protein, by the assay type; details: other: standard assay conditions; pH 9.2; 30.0 °C
[5] = substrate: NC(=O)c1ccc[n+]([C@@H]2O[C@H](COP(=O)([O-])OP(=O)(O)OC[C@H]3O[C@@H](n4cnc5c(N)ncnc54)[C@H](O)[C@@H]3O)[C@@H](O)[C@H]2O)c1; assay: Histidinol dehydrogenase enzyme assay (spectrophotometric, NAD+ reduction at 340 nm); format: biochemical, cabbage (Brassica oleracea); details: other: standard assay conditions; pH 9.2; 30.0 °C
Method: as §1
as §1, with “absorbance” for “absorbence”, “spectrophotometer.” for “spectrophotomer.”, “pH9.2,” for “pH 9.2,”, “MnCl2,” for “MnCl ,”, “NAD +,” for “NAD+,”, “catalyzing” for “catalyzes”

[6] = reaction buffer 150 mM Gly/NaOH, pH9.2

Molecule | Relative Activity [1] [%] | influence of divalent metal ion on the enzyme reaction (in words) [1, 6] | also measured
[Ba+2] [Ba^2+] | 65 | caused inhibition | –
[Ca+2] [Ca^2+] | 36 | caused inhibition | –
[Cu+2] [Cu^2+] | 24 | caused inhibition | –
N[C@H](CO)Cc1c[nH]cn1 [L-histidinol] | – | – | Km ([2]; read-out: Km of the pure enzyme from S. typhimurium for L-histidinol, pure enzyme): 16 µM; Km ([3]; read-out: Km of the partially purified enzyme from wheat germ for L-histidinol): 8.8 µM
[Mg+2] [Mg^2+] | 54 | caused inhibition | –
[Mn+2] [Mn^2+] | 126 | stimulation of the enzyme activity | effect of metal ion on the reaction catalyzed by the S. typhimurium enzyme (in words) [2]: stimulated; stimulation of the reaction compared to control without any divalent metal ion [1, 6]: 26%
NC(=O)c1ccc[n+]([C@@H]2O[C@H](COP(=O)([O-])OP(=O)(O)OC[C@H]3O[C@@H](n4cnc5c(N)ncnc54)[C@H](O)[C@@H]3O)[C@@H](O)[C@H]2O)c1 [NAD+] | – | – | Km ([2]; read-out: Km of the enzyme from S. typhimurium for NAD+): 1000 µM; Km ([3]; partially purified enzyme, read-out: Km of the enzyme from wheat germ for NAD+): 140 µM
[Ni+2] [Ni^2+] | 46 | caused inhibition | –
[Zn+2] [Zn^2+] | 34 | caused inhibition | –
histidinol dehydrogenase from cabbage (Brassica oleracea var. capitata) (protein, Spring cabbage heads are homogenized using a kitchen mixer; from tissue; host or cells: mature spring cabbage heads) SMKSYRLSELSFSQVENLKARPRIDFSSIFTTVNPIIDAVRSKGDTAVKEYTERFDKVQLNKVVEDVSELDIPELDSAVKEAFDVAYDNIYAFHFAQMSTEKSVENMKGVRCKRVSRSIGSVGLYVPGGTAVLPSTALMLAIPAQIAGCKTVVLATPPTKEGSICKEVLYCAKRAGVTHILKAGGAQAIAAMAWGTDSCPKVEKIFGPGNQYVTAAKMILQNSEAMVSIDMPAGPSEVLVIADEHASPVYIAADLLSQAEHGPDSQVVLVVVGDGVNLKAIEEEIAKQCKSLPRGEFASKALSHSFTVFARDMIEAITFSNLYAPEHLIINVKDAEKWEGLIENAGSVFIGPWTPESVGDYASGTNHVLPTYGYARMYSGVSLDSFLKFMTVQSLTEEGLRNLGPYVATMAEIEGLDAHKRAVTLRLKDIEAKQTQTK | – | – | Km [4]: 15.5 µM; Km [5]: 42 µM
